Test results published in ChEMBL document CHEMBL1933032, “Synthesis and evaluation of 4-alkoxy-[1'-cyclobutyl-spiro(3,4-dihydrobenzopyran-2,4'-piperidine)] analogues as histamine-3 receptor antagonists” (Bioorg Med Chem Lett, 2012).

Molecular target: Histamine H3 receptor (Homo sapiens, UniProt Q9Y5N1)
Experiment: Binding affinity to human histamine H3 receptor

Chain of Histamine H3 receptor (Homo sapiens, UniProt Q9Y5N1) (Q9Y5N1 whole entry): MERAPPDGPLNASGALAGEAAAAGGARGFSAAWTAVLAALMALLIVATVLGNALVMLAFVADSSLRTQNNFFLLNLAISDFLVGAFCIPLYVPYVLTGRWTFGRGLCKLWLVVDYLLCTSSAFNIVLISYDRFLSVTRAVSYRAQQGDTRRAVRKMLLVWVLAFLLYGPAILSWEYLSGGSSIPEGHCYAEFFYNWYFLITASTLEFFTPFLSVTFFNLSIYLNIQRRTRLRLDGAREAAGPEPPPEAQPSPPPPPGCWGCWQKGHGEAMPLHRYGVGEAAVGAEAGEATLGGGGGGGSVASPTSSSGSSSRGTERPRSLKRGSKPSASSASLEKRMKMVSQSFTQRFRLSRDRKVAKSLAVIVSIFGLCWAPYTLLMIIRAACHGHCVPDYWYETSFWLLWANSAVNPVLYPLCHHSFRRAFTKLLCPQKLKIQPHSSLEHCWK

Row | Ki | Compound
1 | 16 nM | c1cc2c(cc1OCC1CCCO1)CCC1(CCN(C3CCC3)CC1)O2 (configuration not stated)
2 | 126 nM | OCCOc1ccc2c(c1)CCC1(CCN(C3CCC3)CC1)O2
3 | 39 nM | CS(=O)(=O)CCOc1ccc2c(c1)CCC1(CCN(C3CCC3)CC1)O2
4 | 12 nM | c1cc2c(cc1OCC1CCSCC1)CCC1(CCN(C3CCC3)CC1)O2
5 | 18 nM | CC(C)(O)COc1ccc2c(c1)CCC1(CCN(C3CCC3)CC1)O2
6 | 25 nM | CC(O)COc1ccc2c(c1)CCC1(CCN(C3CCC3)CC1)O2 (configuration not stated)
7 | 23 nM | O=S1(=O)CCC(Oc2ccc3c(c2)CCC2(CCN(C4CCC4)CC2)O3)C1 (configuration not stated)
8 | 15 nM | CSCCCOc1ccc2c(c1)CCC1(CCN(C3CCC3)CC1)O2
9 | 42 nM | COCCOc1ccc2c(c1)CCC1(CCN(C3CCC3)CC1)O2
10 | 15 nM | CC[C@@H](O)COc1ccc2c(c1)CCC1(CCN(C3CCC3)CC1)O2
11 | 23 nM | c1cc2c(cc1OC1CCSCC1)CCC1(CCN(C3CCC3)CC1)O2

Molecular target: Histamine H3 receptor (Rattus norvegicus, UniProt Q9QYN8)
Experiment: Binding affinity to rat histamine H3 receptor

Chain of Histamine H3 receptor (Rattus norvegicus, UniProt Q9QYN8) (Q9QYN8 whole entry): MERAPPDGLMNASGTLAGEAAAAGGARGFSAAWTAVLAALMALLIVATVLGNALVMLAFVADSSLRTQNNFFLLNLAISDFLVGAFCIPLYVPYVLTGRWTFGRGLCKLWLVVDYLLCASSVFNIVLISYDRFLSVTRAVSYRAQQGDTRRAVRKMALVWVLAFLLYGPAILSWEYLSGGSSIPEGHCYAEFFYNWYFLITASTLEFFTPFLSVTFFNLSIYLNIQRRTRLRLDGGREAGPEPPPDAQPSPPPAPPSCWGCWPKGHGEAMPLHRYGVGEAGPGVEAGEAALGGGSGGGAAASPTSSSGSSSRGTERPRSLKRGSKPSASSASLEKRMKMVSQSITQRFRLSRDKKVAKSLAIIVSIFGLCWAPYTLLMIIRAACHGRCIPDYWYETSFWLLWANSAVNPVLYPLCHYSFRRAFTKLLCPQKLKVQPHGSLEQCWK

Row | Ki | Compound
12 | 50 nM | c1cc2c(cc1OCC1CCCO1)CCC1(CCN(C3CCC3)CC1)O2 (configuration not stated)
13 | 368 nM | OCCOc1ccc2c(c1)CCC1(CCN(C3CCC3)CC1)O2
14 | 157 nM | CS(=O)(=O)CCOc1ccc2c(c1)CCC1(CCN(C3CCC3)CC1)O2
15 | 48 nM | c1cc2c(cc1OCC1CCSCC1)CCC1(CCN(C3CCC3)CC1)O2
16 | 74 nM | CC(C)(O)COc1ccc2c(c1)CCC1(CCN(C3CCC3)CC1)O2
17 | 99 nM | CC(O)COc1ccc2c(c1)CCC1(CCN(C3CCC3)CC1)O2 (configuration not stated)
18 | 44 nM | O=S1(=O)CCC(Oc2ccc3c(c2)CCC2(CCN(C4CCC4)CC2)O3)C1 (configuration not stated)
19 | 64 nM | CSCCCOc1ccc2c(c1)CCC1(CCN(C3CCC3)CC1)O2
20 | 91 nM | COCCOc1ccc2c(c1)CCC1(CCN(C3CCC3)CC1)O2
21 | 86 nM | CC[C@@H](O)COc1ccc2c(c1)CCC1(CCN(C3CCC3)CC1)O2
22 | 62 nM | c1cc2c(cc1OC1CCSCC1)CCC1(CCN(C3CCC3)CC1)O2
